Values of other authors as cited in patent US9012171B2, “Systems and methods for measuring translation activity in viable cells” (Anima Cell Metrology, Inc., priority 2007, dated 2015).

System: premature termination codons (PTC)
Details: genetic disorders with premature termination codons in the coding sequence of a critical protein

## O=C(O)c1cccc(-c2noc(-c3ccccc3F)n2)c1 [PTC124]
  required protein produced, relative to normal concentrations: 1-5%
